# Literature values as cited in US8629099B2, “Ophthalmic compositions comprising a dipeptide” (Bausch & Lomb Incorporated, priority 2008, dated 2014).
# Conditions: lower pKa given in text
smiles,measurement,value
NCC(=O)O [glycine],pKa values (first value),2.4
